The record followed here is patent US10766855B2, “Hydroxamate triterpenoid derivatives” (VIVACELL BIOTECHNOLOGY ESPANA S.L., priority 2016, dated 2020).

The subject of experiment [1] is Nrf2. The experiment can be described thus: Nrf2 activation/inhibition in HaCaT-ARE-Luc cells. Format: cell-based. Conditions: 6 h. On the procedure:
(§1) The HeLa-STAT3-luc cells stably transfected with the plasmid 4×M67 pTATA TK-Luc. Cells (20×10^3 cells/ml) were seeded in 96-well plates, treated with increasing concentrations of the compounds II to XIV, and of comparative compound CDDO-Me, for 15 min and then stimulated with IFN-γ 25 IU/ml. After 6 h the luciferase activity in the cell lysates was measured as indicated above. […] The HaCaT-ARE-Luc cell line contains the Nqo1 Antioxidant Response Element (ARE)-Luc reporter plasmid. ARE is activated by all members of the CNC family of factors (Nrf1, Nrf2, Nrf3 and p45 NF-E2). The cells were cultivated in 96-well plates at the concentration of 25×10^3 cells/well in a CO2 incubator at 37° C. For induction of Nrf2 activation the cells were treated with increasing concentrations of the compounds II to XV, and of comparative compound CDDO-Me, for 6 h. As a positive control the cells were treated with 0.02 mM of the antioxidant Tert-butyl-hydroquinone (TBHQ). Luciferase activity in the cell lysates was measured as indicated above and the EC50 calculated (Table III). The CHO-TGR5-CRE-Luc cells stably transfected with the pTGR5 and CRE-Luc. The CRE-responsive luciferase construct encodes the firefly luciferase reporter gene under the control of a minimal (m)CMV promoter and tandem repeats of the CRE transcriptional response element (TRE) and is useful to monitor cAMP signaling pathways activated by TGR5 agonists. Cells (1×10^4/well) were seeded in 96-well plates, treated with increasing concentrations of the compounds II to XV and CDDO-Me, for 6 h. As a positive control the cells were treated with 10 μM of LCA (lithocholic acid). Luciferase activity in the cell lysates was measured as indicated above and the EC50 calculated (Table III).

A further experiment concerns NF-κB. Kind of experiment: NF-κB inhibition in NIH-3T3-KBF-Luc cells stimulated with TNFα. It counts as cell-based. Conditions: TNFα 30 ng/ml, 6 h. How it is done:
To further study the target selectivity of the compounds described in the present invention the effect of the natural triterpenoids (OA; BA, UA, and MA), compounds II to XV of Formula (I) disclosed in present invention, and of comparative compound CDDO-Me on NF-κB inhibition, STAT-3 inhibition, Nrf2 activation and TGR5 activation was analyzed. For this study cell lines NIH-3T3-KBF-Luc, HeLa-STAT3-Luc, HaCaT-ARE-Luc and CHO-TGR5-CRE-luc were used respectively. The NIH3T3-KBF-Luc cell line stably transfected with the plasmid KBF-Luc plasmid, which contains three copies of NF-κB binding site (from major histocompatibility complex promoter), fused to a minimal simian virus 40 promoter driving the luciferase gene. Cells (1×10^4/well) were seeded in 96-well plates, treated with increasing concentrations of the compounds II to XV for 15 min and then stimulated with 30 ng/ml TNFα. After 6 h the luciferase activity in the cell lysates was measured as indicated above.

The next experiment has as its system Erythropoietin (EPO). The experiment can be described thus: Plasma erythropoietin (EPO) levels in mice (ELISA). Conditions: C57BL/6 male mice, i.p., 4 hours after treatment; compound VII 30 and 60 mg/kg, Betulinic acid 60 mg/kg. It counts as in vivo, mouse. How it is done:
EPO in plasma measured using a mouse EPO ELISA kit in C57BL/6 male mice administered with compound VII (30 mg/kg or 60 mg/kg) or betulinic acid (BA) (60 mg/kg) intraperitoneally. […] Data are expressed as mean±SEM (n=3).
Erythropoietin (EPO) is one of the earliest described and most sensitive HIF target genes; being positively regulated at the transcription level. Here, the ability of compound VII to regulated EPO levels in vivo was examined. Sixteen-week-old C57BL/6 male mice were treated intraperitoneally (i.p.) with Betulinic Acid (60 mg/kg) or compound VII (30 mg/kg or 60 mg/kg). Blood samples were taken under general anaesthesia 4 hours after treatment and the circulating levels of EPO in plasma were quantified using a mouse EPO ELISA kit (R&D Systems) according to manufacturer's instructions. EPO values represent the mean±SEM (n=3).
For orientation: In an ELISA, binding on a coated surface is turned into a signal by an enzyme label.

Another experiment concerns TGR5. Kind of experiment: TGR5 activation in CHO-TGR5-CRE-Luc cells. To be noted: 6 h. Format: cell-based.
In a further experiment the test system is HIF-1α. Kind of experiment: HIF-1α transactivation assay in NIH-3T3-EPO-Luc fibroblast cells. Format: cell-based. Conditions: 6 h stimulation. How it is done:
To investigate the biological activities of the different compounds, HIF-1α transactivation assays were performed either in NIH-3T3-EPO-Luc cells (Table II) or in HaCaT-EPO-luc cells (FIG. 2). The NIH3T3-EPO-luc and HaCaT-EPO-luc cells have been stably transfected with the plasmid Epo-Luc plasmid. The EPO-Hypoxia Response Element (HRE)-luciferase reporter plasmid contains three copies of the HRE consensus sequence from the promoter of the erythropoietin gene fused to the luciferase gene. NIH3T3-EPO-luc cells were maintained at 37° C. in a humidified atmosphere containing 5% CO2 in DMEM supplemented with 10% fetal calf serum (FBS), and 1% (v/v) penicillin/streptomycin. DFX was purchased from Sigma-Aldrich (USA). Cells (1×10^4/well in 96 well plates) were seeded the day before the assay. […] After six hours of stimulation the cells were lysed in 25 mM Tris-phosphate pH 7.8, 8 mM MgCl2, 1 mM DTT, 1% Triton X-100, and 7% glycerol during 15 min at RT in a horizontal shaker. Luciferase activity is measured using a microplate luminometer (Berthold) following the instructions of the luciferase assay kit (Promega, Madison, Wis., USA).

A further experiment concerns HIF-2α. The experiment can be described thus: HIF-2α stabilization in hIPCs (Western blot). It counts as cell-based, human. Conditions: increasing concentrations, 3 h. How it is done:
Stimulation of human Islet-Derived Precursor Cells (hIPCs) with increasing concentrations of compound VII or with DFX (150 μM) during 3 h, and the expression of HIF-2α, PHD3 and β-actin determined by Western blots.
Since PDH2 and PDH3 also regulate the expression of HIF-2α, the effect of compound VII on HIF-2α stabilization in Human Islet-Derived Precursor Cells (hIPCs) obtained from Innoprot SL (Spain) (reference p10472) was investigated. hIPCs were stimulated with the increasing concentrations of compound VII or with DFX (150 μM) during 3 h. After that, proteins isolation and western blots were performed as in FIG. 3. The antibodies against HIF-2α (ab8365) and PHD3 (ab30782) were from Abcam (Cambrigde, UK), and the antibody anti-β-actin (AC-74) was purchased from Sigma-Aldrich (Saint Louis, Mo., USA). (FIG. 5).
For orientation: A western blot detects proteins with antibodies after separation by electrophoresis.

For a further experiment, the system named is STAT3. Kind of experiment: STAT3 inhibition in HeLa-STAT3-Luc cells stimulated with IFN-γ. It counts as cell-based. Conditions: IFN-γ 25 IU/ml, 6 h. On the procedure: as §1
For experiment [2], the system named is Nrf2. Kind of experiment: Nrf2 activation/inhibition in HaCaT-ARE-Luc cells. Format: cell-based.

Bounds are passed on as bounds.

Protocol for TGR5: The CHO-TGR5-CRE-Luc cells stably transfected with the pTGR5 and CRE-Luc. […] As a positive control the cells were treated with 10 μM of LCA (lithocholic acid). Luciferase activity in the cell lysates was measured as indicated above and the EC50 calculated (Table III).

As to `C=C(C)[C@@H]1CC[C@]2(C(=O)NO)CC[C@]3(C)[C@H](CC[C@@H]4[C@@]5(C)CC[C@H](O)C(C)(C)[C@@H]5CC[C@]43C)[C@@H]12` [Compound VII, (3β) 3-Hydroxy-N-hydroxy-lup-20(29)-en-28-amide], the concentration for a half-maximal effect (EC50) (usually the concentration that produces a half-maximal response) is above 50 µM in the experiment on Nrf2 [1]; above 50 µM in the experiment with TGR5; 4.81 µM in the experiment on HIF-1α (Fibroblast, read-out: Potency EC50 HIF-1α). The IC50 in the experiment on NF-κB, with STAT3 and with Nrf2 [2] was above 50 µM throughout. Further, the “circulating EPO plasma levels” value in the experiment with Erythropoietin (EPO) was “strongly increased”. The “Efficacy HIF-1α (IRA coefficient)” value in the experiment with HIF-1α (relative to 150 μM DFX) is recorded as 0.36. The HIF-2α expression entry with HIF-2α was “stabilized HIF-2α expression”. Besides, in the experiment with HIF-2α, the “expression of PHD3” value is listed as “without affecting the expression of PHD3”.
